Counter-ions that a name gives are not always drawn.
How the values were obtained:
[1] = Cell viability by CellTiter-Glo 2.0 (intracellular ATP content) in HepG2.117 cells; assay type: cell-based; settings: human, CellTiter-Glo 2.0, 3 days incubation
Method: (§1) The following assay procedure describes the HBV antiviral assay, using HepG2.117 cells, which carry a stably integrated genotype D HBV genome under the control of a Tet-off promoter, and intracellular HBV DNA quantification as endpoint. Cell viability is assessed in parallel by measuring the intracellular ATP content using CellTiter-Glo 2.0 (Promega).
(§2) On day 1, medium is removed from each well, the test articles are diluted in culture medium without doxcycyline and 100 μL was added to cell culture wells (9 concentrations, 4-fold dilution). For each plate, 6 untreated (merely DMSO) wells are included. The final concentration of DMSO in the culture medium is 2%. Each plate is prepared in duplicate (one for HBV DNA extraction, one for CellTiter-Glo 2.0 measurement). The cells are incubated at 37° C. and 5% CO2 for 3 days.
(§3) On day 4, cell viability is assessed using CellTiter-Glo 2.0 and cell lysates are prepared for HBV DNA extraction and subsequent quantification by qPCR.
Using the other plates, the cell viability is quantified by CellTiter-Glo 2.0 according to the manufacturer's manual. In brief, 100 μL of reagent solution is added to the culture plates and shaken for 2′. The plates are incubated at rt for 10 min and luminescence signal is subsequently measured on a VarioSkan Lux (ThermoFisher) plate reader.
(§4) Cell viability is calculated as follows: % Cell viability=(luminescence value of test sample)/(average luminescence value of 2% DMSO control)×100%. HBV DNA inhibition was calculated as follows: 100−(HBV DNA copy number of test sample)/(average HBV DNA copy number of 2% DMSO control)×100%. No normalization to entecavir is required due to the excellent dynamic window of this assay. The CC50, EC50 and EC9o values were determined by dose-response curves fitted using non-linear regression.

[2] = system: HBV; test: HBV-DNA antiviral assay using HepG2.117 cells; assay type: cell-based, HBV genotype D; settings: Hepatitis B virus, HepG2.117, 72 h
Method: as §1
On day 0, HepG2.117 cells (which are maintained in routine cell culture with doxycycline present in the medium at a final concentration of 1 μg/mL) are seeded in 96-well plates (white with clear bottom) at a density of 2.0×10^4 cells/well (0.1 mL/well) in medium without doxycycline to induce pgRNA transcription and subsequent formation of HBV particles. The cells are incubated at 37° C. and 5% CO2.
as §2, §3
HBV DNA Quantification by qPCR
Medium is removed from each well and 100 μL of 0.33% NP-40 in H2O was added to each well. Plates are sealed, incubated at 4° C. for 5 mins, vortexed extensively and centrifuged briefly. Next, 35 μL of lysate is added to 65 μL QuickExtract DNA Extraction Solution (Epicentre) in a PCR plate for each well. PCR plate is incubated at 65° C. for 6 mins, 98° C. for 2 mins and finally cooled to 4° C. HBV DNA is then quantified by qPCR with HBV-specific primers and probes as specified in Table 3 using the Bio-Rad SSOAdvanced Universal Probes Supermix on a CFX96 machine (Bio-Rad). The PCR cycle program consisted of 95° C. for 3 mins, followed by 40 cycles at 95° C. for 10 sec and 60° C. for 30 sec.
A DNA standard is prepared by dilution of an IDT gBlock corresponding to the amplicon with concentrations ranging from 10^2 to 10^8 copies/input (i.e., per 4 μL) and used to generate a standard curve by plotting Cq values vs. HBV DNA standard concentration. The quantity of HBV DNA in each sample is determined by interpolating from the standard curve.
as §4

SMILES	CC50 at 3 days [1]	EC50 [2]
Cc1cc(C)n(-c2nc3c(c(=O)n2-c2ccc4c(c2)ncn4C)C[C@@H](C)N(C(=O)c2ccc(Br)c(C(F)(F)F)c2)C3)n1 [Compound 1, (R)-7-(4-bromo-3-(trifluoromethyl)benzoyl)-2-(3,5-dimethyl-1H-pyrazol-1-yl)-6-methyl-3-(1-methyl-1H-benzo[d]imidazol-5-yl)-5,6,7,8-tetrahydropyrido[3,4-d]pyrimidin-4(3H)-one]	> 500 nM	< 50 nM
CNC(=O)c1ccc(-n2c(-n3nc(C)cc3C)nc3c(c2=O)C[C@@H](C)N(C(=O)c2ccc(Br)c(C(F)(F)F)c2)C3)cc1Cl [Compound 2, (R)-4-(7-(4-bromo-3-(trifluoromethyl)benzoyl)-2-(3,5-dimethyl-1H-pyrazol-1-yl)-6-methyl-4-oxo-5,6,7,8-tetrahydropyrido[3,4-d]pyrimidin-3(4H)-yl)-2-chloro-N-methylbenzamide]	> 500 nM	< 50 nM
Cc1cc(C)n(-c2nc3c(c(=O)n2-c2ccc4c(ncn4C)n2)C[C@@H](C)N(C(=O)c2ccc(Br)c(C(F)(F)F)c2)C3)n1 [Compound 3, (R)-7-(4-bromo-3-(trifluoromethyl)benzoyl)-2-(3,5-dimethyl-1H-pyrazol-1-yl)-6-methyl-3-(1-methyl-1H-imidazo[4,5-b]pyridin-5-yl)-5,6,7,8-tetrahydropyrido[3,4-d]pyrimidin-4(3H)-one]	> 500 nM	< 50 nM
Cc1cc(C)n(-c2nc3c(c(=O)n2-c2ccc(O)cc2)C[C@@H](C)N(C(=O)c2ccc(Br)c(C(F)(F)F)c2)C3)n1 [Compound 4, (R)-7-(4-bromo-3-(trifluoromethyl)benzoyl)-2-(3,5-dimethyl-1H-pyrazol-1-yl)-3-(4-hydroxyphenyl)-6-methyl-5,6,7,8-tetrahydropyrido[3,4-d]pyrimidin-4(3H)-one]	> 500 nM	< 50 nM
Cc1cc(C)n(-c2nc3c(c(=O)n2-c2ccc(OCC(N)=O)cc2)C[C@@H](C)N(C(=O)c2ccc(Br)c(C(F)(F)F)c2)C3)n1 [Compound 5, (R)-2-(4-(7-(4-bromo-3-(trifluoromethyl)benzoyl)-2-(3,5-dimethyl-1H-pyrazol-1-yl)-6-methyl-4-oxo-5,6,7,8-tetrahydropyrido[3,4-d]pyrimidin-3(4H)-yl)phenoxy)acetamide]	> 500 nM	< 50 nM
Cc1cc(C)n(-c2nc3c(c(=O)n2-c2ccc(OC[C@@H](O)CO)cc2)C[C@@H](C)N(C(=O)c2ccc(Br)c(C(F)(F)F)c2)C3)n1 [Compound 6, (R)-7-(4-bromo-3-(trifluoromethyl)benzoyl)-3-(4-((S)-2,3-dihydroxypropoxy)phenyl)-2-(3,5-dimethyl-1H-pyrazol-1-yl)-6-methyl-5,6,7,8-tetrahydropyrido[3,4-d]pyrimidin-4(3H)-one]	> 500 nM	50 to 500 nM
Cc1cc(C)n(-c2nc3c(c(=O)n2-c2ccc(OC[C@H](O)CO)cc2)C[C@@H](C)N(C(=O)c2ccc(Br)c(C(F)(F)F)c2)C3)n1 [Compound 7, (R)-7-(4-bromo-3-(trifluoromethyl)benzoyl)-3-(4-((R)-2,3-dihydroxypropoxy)phenyl)-2-(3,5-dimethyl-1H-pyrazol-1-yl)-6-methyl-5,6,7,8-tetrahydropyrido[3,4-d]pyrimidin-4(3H)-one]	> 500 nM	< 50 nM
Cc1cc(C)n(-c2nc3c(c(=O)n2-c2ccc(NC[C@@H](C)O)nc2)C[C@@H](C)N(C(=O)c2ccc(Br)c(C(F)(F)F)c2)C3)n1 [Compound 8, (R)-7-(4-bromo-3-(trifluoromethyl)benzoyl)-2-(3,5-dimethyl-1H-pyrazol-1-yl)-3-(6-(((R)-2-hydroxypropyl)amino)pyridin-3-yl)-6-methyl-5,6,7,8-tetrahydropyrido[3,4-d]pyrimidin-4(3H)-one]	> 500 nM	< 50 nM
Cc1cc(C)n(-c2nc3c(c(=O)n2-c2ccc(N4CC[C@@H](O)C4)nc2)C[C@@H](C)N(C(=O)c2ccc(Br)c(C(F)(F)F)c2)C3)n1 [Compound 9, (R)-7-(4-bromo-3-(trifluoromethyl)benzoyl)-2-(3,5-dimethyl-1H-pyrazol-1-yl)-3-(6-((R)-3-hydroxypyrrolidin-1-yl)pyridin-3-yl)-6-methyl-5,6,7,8-tetrahydropyrido[3,4-d]pyrimidin-4(3H)-one]	> 500 nM	< 50 nM
Cc1cc(C)n(-c2nc3c(c(=O)n2-c2ccc(N4CCNCC4)nc2)C[C@@H](C)N(C(=O)c2ccc(Br)c(C(F)(F)F)c2)C3)n1 [Compound 10, (R)-7-(4-bromo-3-(trifluoromethyl)benzoyl)-2-(3,5-dimethyl-1H-pyrazol-1-yl)-6-methyl-3-(6-(piperazin-1-yl)pyridin-3-yl)-5,6,7,8-tetrahydropyrido[3,4-d]pyrimidin-4(3H)-one hydrochloride]	> 500 nM	< 50 nM
Cc1cc(C)n(-c2nc3c(c(=O)n2-c2ccc(N4CCN(C)CC4)nc2)C[C@@H](C)N(C(=O)c2ccc(Br)c(C(F)(F)F)c2)C3)n1 [Compound 11, (R)-7-(4-bromo-3-(trifluoromethyl)benzoyl)-2-(3,5-dimethyl-1H-pyrazol-1-yl)-6-methyl-3-(6-(4-methylpiperazin-1-yl)pyridin-3-yl)-5,6,7,8-tetrahydropyrido[3,4-d]pyrimidin-4(3H)-one]	> 500 nM	< 50 nM
Cc1cc(C)n(-c2nc3c(c(=O)n2-c2ccc(OC[C@H](C)OP(=O)(O)O)cc2)C[C@@H](C)N(C(=O)c2ccc(Br)c(C(F)(F)F)c2)C3)n1 [Compound 12, (S)-1-(4-((R)-7-(4-bromo-3-(trifluoromethyl)benzoyl)-2-(3,5-dimethyl-1H-pyrazol-1-yl)-6-methyl-4-oxo-5,6,7,8-tetrahydropyrido[3,4-d]pyrimidin-3(4H)-yl)phenoxy)propan-2-yl dihydrogen phosphate]	> 500 nM	50 to 500 nM
Cc1cc(C)n(-c2nc3c(c(=O)n2-c2ccc4c(cnn4C)c2)C[C@@H](C)N(C(=O)c2ccc(Br)c(C(F)(F)F)c2)C3)n1 [Compound 13, (6R)-7-[4-bromo-3-(trifluoromethyl)benzoyl]-2-(3,5-dimethylpyrazol-1-yl)-6-methyl-3-(1-methylindazol-5-yl)-6,8-dihydro-5H-pyrido[3,4-d]pyrimidin-4-one]	> 500 nM	< 50 nM
Cc1cc(C)n(-c2nc3c(c(=O)n2-c2ccc(OC[C@@H](C)O)cc2)C[C@@H](C)N(C(=O)c2ccc(Br)c(C(F)(F)F)c2)C3)n1 [Compound 14, (6R)-7-[4-bromo-3-(trifluoromethyl)benzoyl]-2-(3,5-dimethylpyrazol-1-yl)-3-[4-[(2R)-2-hydroxypropoxy]phenyl]-6-methyl-6,8-dihydro-5H-pyrido[3,4-d]pyrimidin-4-one]	> 500 nM	< 50 nM
Cc1cc(C)n(-c2nc3c(c(=O)n2-c2ccc(OC[C@H](C)O)cc2)C[C@@H](C)N(C(=O)c2ccc(Br)c(C(F)(F)F)c2)C3)n1 [Compound 15, (6R)-7-[4-bromo-3-(trifluoromethyl)benzoyl]-2-(3,5-dimethylpyrazol-1-yl)-3-[4-[(2S)-2-hydroxypropoxy]phenyl]-6-methyl-6,8-dihydro-5H-pyrido[3,4-d]pyrimidin-4-one]	> 500 nM	< 50 nM
Cc1cc(C)n(-c2nc3c(c(=O)n2-c2ccc(-c4cnn(C)c4)cn2)C[C@@H](C)N(C(=O)c2ccc(Br)c(C(F)(F)F)c2)C3)n1 [Compound 16, (6R)-7-[4-bromo-3-(trifluoromethyl)benzoyl]-2-(3,5-dimethylpyrazol-1-yl)-6-methyl-3-[5-(1-methylpyrazol-4-yl)-2-pyridyl]-6,8-dihydro-5H-pyrido[3,4-d]pyrimidin-4-one]	> 500 nM	< 50 nM
